For eleven molecules, EC50 results are on record in patent US7745636B2, “Hepatitis C virus inhibitors” (Bristol-Myers Squibb Company, priority 2006, dated 2010).

One may read the EC50 as the midpoint of the concentration-response curve.

The subject of this experiment is HCV 1b-377-neo replicon cells. The experiment is described as follows: HCV Replicon assay, HCV 1b-377-neo replicon cells. Format: cell-based, HCV 1b genotype. The conditions noted are these: Table 2, read-out: Range (EC50 against HCV 1b). For orientation: In antiviral work, replicon cells carry a viral genome segment that copies itself.

Structures are written as SMILES. Read-outs that look alike come from different tables or passages of the source.

With `O=C([C@H](O)c1ccccc1)N1CCC[C@H]1c1ncc(-c2ccc(-c3ccc(-c4cnc([C@@H]5CCCN5C(=O)[C@H](O)c5ccccc5)[nH]4)cn3)cc2)[nH]1` [Example 133, (1R)-2-((2S)-2-(5-(6-(4-(2-((2S)-1-((2R)-2-hydroxy-2-phenylacetyl)-2-pyrrolidinyl)-1H-imidazol-5-yl)phenyl)-3-pyridinyl)-1H-imidazol-2-yl)-1-pyrrolidinyl)-2-oxo-1-phenylethanol], the EC50 (Hepatitis C virus) is 1 to 99 nM.
Consider `CC(C)[C@H](NC(=O)N(C)C)C(=O)O` [OL-2], for which the EC50 was 0.001 to 0.999 nM.
On to `C[C@@H](OCc1ccccc1)[C@H](N)c1ncc(-c2ccc(-c3ccc(-c4cnc([C@@H]5CCCN5)[nH]4)cc3)cc2)[nH]1` [Example R35], for which the EC50 (Hepatitis C virus) fell in the range of 100 to 999 nM.
For `COC(=O)N[C@@H](C(=O)N(C)[C@@H](C)c1ncc(-c2ccc(-c3ccc(-c4cnc([C@@H]5CCCN5C(=O)[C@H](NC(=O)OC)c5ccccc5)[nH]4)cc3)cc2)[nH]1)c1ccccc1` [Example 24-18-4, methyl ((1R)-2-((2S)-2-(5-(4′-(2-((1S)-1-(((2R)-2-((methoxycarbonyl)amino)-2-phenylacetyl) (methyl)amino)ethyl)-1H-imidazol-5-yl)-4-biphenylyl)-1H-imidazol-2-yl)-1-pyrrolidinyl)-2-oxo-1-phenylethyl) carbamate], the EC50 (Hepatitis C virus) was in the range of 0.001 to 0.999 nM.
For `COC(=O)N[C@H](C(=O)N1CCC[C@H]1c1ncc(-c2ccc(-c3ccc(-c4cnc([C@@H]5CCCN5C(=O)[C@@H](NC(=O)OC)C(C)C)[nH]4)cc3C(=O)O)cc2)[nH]1)C(C)C` [Example M114, 4,4′-bis(2-((2S)-1-(N-(methoxycarbonyl)-L-valyl)-2-pyrrolidinyl)-1H-imidazol-5-yl)-2-biphenylcarboxylic acid], the EC50 (Hepatitis C virus) lay in the range of 1000 to 10000 nM.
As for `COC(=O)N[C@H](C(=O)N1CCC[C@H]1c1ncc(-c2ccc(-c3ccc(-c4cnc([C@@H]5CCCN5C(=O)CNC(C)C)[nH]4)cc3)cc2)[nH]1)C(C)C` [LS25], the EC50 lay in the range of 0.001 to 0.999 nM.
On to `C[C@@H](c1ncc(-c2ccc(-c3ncc(-c4cnc([C@@H]5CCCN5C(=O)[C@@H](c5ccccc5)N5CCCCC5)[nH]4)cn3)cc2)[nH]1)N(C)C(=O)[C@@H](c1ccccc1)N1CCCCC1` [Example 152j-6, (2R)-N-methyl-2-phenyl-N-((1S)-1-(4-(4-(5-(2-((2S)-1-((2R)-2-phenyl-2-(1-piperidinyl)acetyl)-2-pyrrolidinyl)-1H-imidazol-5-yl)-2-pyrimidinyl)phenyl)-1H-imidazol-2-yl)ethyl)-2-(1-piperidinyl)acetamide], for which the EC50 (Hepatitis C virus) was in the range of 0.001 to 0.999 nM.
Same read-out and setting: in the case of `COC(=O)N[C@@H](C(=O)N[C@@H](C)c1ncc(-c2ccc(-c3cnc(-c4cnc([C@@H]5CCCN5C(=O)[C@H](NC(=O)OC)c5ccccc5)[nH]4)cn3)cc2)[nH]1)c1ccccc1` [Example 152j-28, methyl ((1R)-2-((2S)-2-(5-(5-(4-(2-((1S)-1-(((2R)-2-((methoxycarbonyl)amino)-2-phenylace-tyl)amino)eth-yl)-1H-imidazol-5-yl)phenyl)-2-pyrazinyl)-1H-imidazol-2-yl)-1-pyrrolidinyl)-2-oxo-1-phenylethyl)carbamate] it was 0.001 to 0.999 nM.
Take `CCC(CC)[C@H](NC(=O)OC)C(=O)O` [OL-5]: the half-maximal effective concentration (EC50) was in the range of 0.001 to 0.999 nM.
On to `O=C([C@@H](c1ccccc1)N1CCCCC1)N1CCC[C@H]1c1ncc(-c2ccc(-c3ncc(-c4cnc([C@@H]5CCCN5C(=O)[C@@H](c5ccccc5)N5CCCCC5)[nH]4)cn3)cc2)[nH]1` [Example 152j-5, 5-(2-((2S)-1-((2R)-2-phenyl-2-(1-piperidinyl)acetyl)-2-pyrrolidinyl)-1H-imidazol-5-yl)-2-(4-(2-((2S)-1-((2R)-2-phenyl-2-(1-piperidinyl)acetyl)-2-pyrrolidinyl)-1H-imidazol-4-yl)phenyl)pyrimidine], for which, where the note is “Hepatitis C virus”, the EC50 was in the range of 0.001 to 0.999 nM.
As to `COC(=O)N[C@@H](C(=O)N(C)[C@@H](C)c1ncc(-c2ccc(-c3ncc(-c4cnc([C@@H]5CCCN5C(=O)[C@@H](c5ccccc5)N5CCCCC5)[nH]4)cn3)cc2)[nH]1)c1ccccc1` [Example 152l-1, methyl ((1R)-2-(methyl((1S)-1-(4-(4-(5-(2-((2S)-1-((2R)-2-phenyl-2-(1-piperidinyl)acetyl)-2-pyrrolidinyl)-1H-imidazol-5-yl)-2-pyrimidinyl)phenyl)-1H-imidazol-2-yl)ethyl)amino)-2-oxo-1-phenylethyl)carbamate], for the setting “Hepatitis C virus”, the EC50 was in the range of 0.001 to 0.999 nM.
